# Results reported in the supplement of paper PMC10307832.
# Tests used:
# Assay in all cases: relative viability (nuclei count vs DMSO), 5 days (fraction); higher = more cells survive
# ChaGo-K-1 = system: ChaGo-K-1
# Procedure, shortened: (§1)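 Lung cancer cell lines in 1536-well plates got either a single drug or a fixed anchor-drug dose together with five library-drug doses (not always all listed) in √10 steps, by pin tool, on the day after seeding. Nuclei were counted after 5 days, and relative viability is the treated-to-vehicle ratio of nuclei counts. Values are medians of duplicate plates.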
# A-427 = system: A-427
# Procedure, shortened: as §1
# CAL-12T = system: CAL-12T
# Procedure, shortened: as §1
# NCI-H2009 = system: NCI-H2009
# Procedure, shortened: as §1
# NCI-H1395 = system: NCI-H1395
# Procedure, shortened: as §1
# SK-MES-1 = system: SK-MES-1
# Procedure, shortened: as §1
# LCLC-103H = system: LCLC-103H
# Procedure, shortened: as §1
# NCI-H441 = system: NCI-H441
# Procedure, shortened: as §1
# LU99A = system: LU99A
# Procedure, shortened: as §1
# EPLC-272H = system: EPLC-272H
# Procedure, shortened: as §1
# NCI-H1975 = system: NCI-H1975
# Procedure, shortened: as §1
# NCI-H727 = system: NCI-H727
# Procedure, shortened: as §1
# NCI-H1793 = system: NCI-H1793
# Procedure, shortened: as §1
# NCI-H460 = system: NCI-H460
# Procedure, shortened: as §1
# NCI-H650 = system: NCI-H650
# Procedure, shortened: as §1
# BEN = system: BEN
# Procedure, shortened: as §1
# LXF-289 = system: LXF-289
# Procedure, shortened: as §1
# NCI-H2342 = system: NCI-H2342
# Procedure, shortened: as §1
# COR-L 105 = system: COR-L 105
# Procedure, shortened: as §1
# NCI-H2347 = system: NCI-H2347
# Procedure, shortened: as §1
# NCI-H358 = system: NCI-H358
# Procedure, shortened: as §1
# NCI-H1650 = system: NCI-H1650
# Procedure, shortened: as §1
# HOP-62 = system: HOP-62
# Procedure, shortened: as §1
# NCI-H1993 = system: NCI-H1993
# Procedure, shortened: as §1
# NCI-H1666 = system: NCI-H1666
# Procedure, shortened: as §1
structure (smiles),measurement,setting,value
Nc1cccc2c1CN(C1CCC(=O)NC1=O)C2=O (configuration not stated) [Lenalidomide] + CC(=O)c1c(C)c2cnc(Nc3ccc(N4CCNCC4)cn3)nc2n(C2CCCC2)c1=O [Palbociclib] (partner 0.5 µM),relative viability,ChaGo-K-1; first compound 0.253 µM,0.946
same,relative viability,ChaGo-K-1; first compound 0.8 µM,0.978
same,relative viability,ChaGo-K-1; first compound 2.53 µM,1.01
same,relative viability,ChaGo-K-1; first compound 8 µM,0.971
same,relative viability,A-427; first compound 0.253 µM,0.529
same,relative viability,A-427; first compound 0.8 µM,0.49
same,relative viability,A-427; first compound 2.53 µM,0.548
same,relative viability,A-427; first compound 8 µM,0.529
same,relative viability,CAL-12T; first compound 0.253 µM,0.402
same,relative viability,CAL-12T; first compound 0.8 µM,0.579
same,relative viability,CAL-12T; first compound 2.53 µM,0.785
same,relative viability,CAL-12T; first compound 8 µM,0.472
same,relative viability,NCI-H2009; first compound 0.253 µM,0.206
same,relative viability,NCI-H2009; first compound 0.8 µM,0.232
same,relative viability,NCI-H2009; first compound 2.53 µM,0.218
same,relative viability,NCI-H2009; first compound 8 µM,0.221
same,relative viability,NCI-H1395; first compound 0.253 µM,0.649
same,relative viability,NCI-H1395; first compound 2.53 µM,0.701
same,relative viability,NCI-H1395; first compound 8 µM,0.592
same,relative viability,SK-MES-1; first compound 0.253 µM,0.317
same,relative viability,SK-MES-1; first compound 0.8 µM,0.312
same,relative viability,SK-MES-1; first compound 2.53 µM,0.278
same,relative viability,SK-MES-1; first compound 8 µM,0.156
same,relative viability,LCLC-103H; first compound 0.253 µM,0.484
same,relative viability,LCLC-103H; first compound 0.8 µM,0.459
same,relative viability,LCLC-103H; first compound 2.53 µM,0.464
same,relative viability,LCLC-103H; first compound 8 µM,0.47
same,relative viability,NCI-H441; first compound 0.253 µM,0.239
same,relative viability,NCI-H441; first compound 0.8 µM,0.205
same,relative viability,NCI-H441; first compound 2.53 µM,0.264
same,relative viability,NCI-H441; first compound 8 µM,0.202
same,relative viability,LU99A; first compound 0.253 µM,0.409
same,relative viability,LU99A; first compound 0.8 µM,0.39
same,relative viability,LU99A; first compound 2.53 µM,0.361
same,relative viability,LU99A; first compound 8 µM,0.286
same,relative viability,EPLC-272H; first compound 0.253 µM,0.34
same,relative viability,EPLC-272H; first compound 0.8 µM,0.383
same,relative viability,EPLC-272H; first compound 2.53 µM,0.333
same,relative viability,EPLC-272H; first compound 8 µM,0.322
same,relative viability,NCI-H1975; first compound 0.253 µM,0.591
same,relative viability,NCI-H1975; first compound 0.8 µM,0.312
same,relative viability,NCI-H1975; first compound 2.53 µM,0.711
same,relative viability,NCI-H1975; first compound 8 µM,0.399
same,relative viability,NCI-H727; first compound 0.253 µM,0.697
same,relative viability,NCI-H727; first compound 0.8 µM,0.684
same,relative viability,NCI-H727; first compound 2.53 µM,0.64
same,relative viability,NCI-H727; first compound 8 µM,0.631
same,relative viability,NCI-H1793; first compound 0.253 µM,0.363
same,relative viability,NCI-H1793; first compound 2.53 µM,0.296
same,relative viability,NCI-H1793; first compound 8 µM,0.256
same,relative viability,NCI-H460; first compound 0.253 µM,0.179
same,relative viability,NCI-H460; first compound 0.8 µM,0.0987
same,relative viability,NCI-H460; first compound 2.53 µM,0.197
same,relative viability,NCI-H460; first compound 8 µM,0.142
same,relative viability,NCI-H650; first compound 0.253 µM,0.405
same,relative viability,NCI-H650; first compound 0.8 µM,0.303
same,relative viability,NCI-H650; first compound 2.53 µM,0.326
same,relative viability,NCI-H650; first compound 8 µM,0.355
same,relative viability,BEN; first compound 0.253 µM,0.478
same,relative viability,BEN; first compound 0.8 µM,0.496
same,relative viability,BEN; first compound 2.53 µM,0.418
same,relative viability,BEN; first compound 8 µM,0.556
same,relative viability,LXF-289; first compound 0.253 µM,0.616
same,relative viability,LXF-289; first compound 0.8 µM,0.63
same,relative viability,LXF-289; first compound 2.53 µM,0.657
same,relative viability,LXF-289; first compound 8 µM,0.668
same,relative viability,NCI-H2342; first compound 0.253 µM,0.551
same,relative viability,NCI-H2342; first compound 0.8 µM,0.53
same,relative viability,NCI-H2342; first compound 2.53 µM,0.502
same,relative viability,NCI-H2342; first compound 8 µM,0.476
same,relative viability,COR-L 105; first compound 0.253 µM,0.394
same,relative viability,COR-L 105; first compound 0.8 µM,0.412
same,relative viability,COR-L 105; first compound 2.53 µM,0.409
same,relative viability,COR-L 105; first compound 8 µM,0.413
same,relative viability,NCI-H2347; first compound 0.253 µM,0.492
same,relative viability,NCI-H2347; first compound 0.8 µM,0.446
same,relative viability,NCI-H2347; first compound 2.53 µM,0.494
same,relative viability,NCI-H2347; first compound 8 µM,0.424
same,relative viability,NCI-H358; first compound 0.8 µM,0.139
same,relative viability,NCI-H358; first compound 2.53 µM,0.142
same,relative viability,NCI-H358; first compound 8 µM,0.132
same,relative viability,NCI-H1650; first compound 0.253 µM,0.339
same,relative viability,NCI-H1650; first compound 0.8 µM,0.279
same,relative viability,NCI-H1650; first compound 2.53 µM,0.343
same,relative viability,NCI-H1650; first compound 8 µM,0.453
same,relative viability,HOP-62; first compound 0.253 µM,0.45
same,relative viability,HOP-62; first compound 0.8 µM,0.41
same,relative viability,HOP-62; first compound 2.53 µM,0.455
same,relative viability,HOP-62; first compound 8 µM,0.378
same,relative viability,NCI-H1993; first compound 0.253 µM,0.789
same,relative viability,NCI-H1993; first compound 0.8 µM,0.659
same,relative viability,NCI-H1993; first compound 2.53 µM,0.729
same,relative viability,NCI-H1993; first compound 8 µM,0.455
same,relative viability,NCI-H1666; first compound 0.253 µM,0.647
same,relative viability,NCI-H1666; first compound 0.8 µM,0.584
same,relative viability,NCI-H1666; first compound 2.53 µM,0.646
same,relative viability,NCI-H1666; first compound 8 µM,0.642
